Measured values: ChEMBL document CHEMBL3430912, “GSK Tres Cantos Anti-Kinetoplastid Screening (TCAKS) Data”

Tests used:
Trypanosoma cruzi [1] = assay: GSK_TCAKS: pIC50 Trypanosoma cruzi viability assay using beta-GAL activity. This assay was run at single shot at 5uM compound concentration per well. The biological reagents consisted of NIH-3T3 host cells and trypomastigotes parasitic cells; both cell types were set to a 3.3 * 10^5 cells/mL dilution in assay DMEM by means of a CASY cell counter device using a 60um capillary. 6 uL of the mixture were dispensed per well (about 1 * 10^3 host-cells and 1 * 10^3 parasites) with a Multidrop Combi dispenser. […] In all wells, the percentage of DMSO never exceeded 0.5%. Plates incubated for four days at 37C, 5% CO2. The substrate used for the assay fluorescence intensity (FLINT) readout was resorufin-beta-D-galactopiranoside (Sigma-Aldrich) at 5uM per well. It was diluted in PBS supplemented with the soft detergent Igepal (Fluka).; format: functional, organism-based, Mus musculus; settings: Tulahuen, NIH3T3
Trypanosoma cruzi [2] = assay: (§1) GSK_TCAKS: pIC50 Trypanosoma cruzi Imaging: Infected Cells. […] Cells were then washed once with PBS before infection. T. cruzi trypomastigotes, collected at days 5 to 8 after infection from LLC-MK2 parasite infected cultures, were allowed to swim out for 4h at 37C from a centrifuged pellet (2,500 rpm/10 min/room temperature). Trypomastigotes were then collected and counted in a CASY Cell Counter. Trypomastigotes, in supplemented DMEM, were added to H9c2 cultures in a multiplicity of infection of 1 and incubated for 18 h. Cells were washed once with PBS before incubation of the infected H9c2 monolayer with trypsin (Life-Technologies) to detach cells from the flask. Cells were counted in a CASY Cell Counter using a 150 um capillary and their density set at 5 * 10^4 cells per mL in supplemented assay DMEM. Infected H9c2 were dispensed into 384-well poly-lysine coated assay plates at 50uL per well using a Multidrop Combi dispenser. After seeding them, the plates were incubated at 37C, 5% CO2 for 72h. Cultures were then fixed and stained by addition of 50 uL of a solution containing 8% formaldehyde and 4 uM DRAQ5 DNA dye (BioStatus, UK) per well. […] Five images were collected per well for reliable statistical analysis. Automated image analysis was performed with a script developed on Acapella High Content Imaging and Analysis Software (PerkinElmer). Output: percentage of infected cells per well as a second infection marker.; format: functional, organism-based, Rattus norvegicus; settings: H9c2, 4 h
Trypanosoma cruzi [3] = assay: GSK_TCAKS: pIC50 Trypanosoma cruzi Imaging: Amastigotes/Cell. […] Cells were then washed once with PBS before infection. T. cruzi trypomastigotes, collected at days 5 to 8 after infection from LLC-MK2 parasite infected cultures, were allowed to swim out for 4h at 37C from a centrifuged pellet (2,500 rpm/10 min/room temperature). Trypomastigotes were then collected and counted in a CASY Cell Counter. Trypomastigotes, in supplemented DMEM, were added to H9c2 cultures in a multiplicity of infection of 1 and incubated for 18 h. Cells were washed once with PBS before incubation of the infected H9c2 monolayer with trypsin (Life-Technologies) to detach cells from the flask. Cells were counted in a CASY Cell Counter using a 150 um capillary and their density set at 5 * 10^4 cells per mL in supplemented assay DMEM. Infected H9c2 were dispensed into 384-well poly-lysine coated assay plates at 50uL per well using a Multidrop Combi dispenser. After seeding them, the plates were incubated at 37C, 5% CO2 for 72h. Cultures were then fixed and stained by addition of 50 uL of a solution containing 8% formaldehyde and 4 uM DRAQ5 DNA dye (BioStatus, UK) per well. […] Five images were collected per well for reliable statistical analysis. Automated image analysis was performed with a script developed on Acapella High Content Imaging and Analysis Software (PerkinElmer). Output: number of amastigotes per cell as infection level measurement.; format: functional, organism-based, Rattus norvegicus; settings: H9c2, 4 h
Trypanosoma cruzi [4] = assay: as §1, with “H2C9” for “Trypanosoma cruzi”, “H9c2 Host Cardiomyocytes.” for “Infected Cells.”, “Number” for “percentage”, “H9c2 Host Cardiomyocytes nuclei to determine drug-related cytotoxicity.” for “infected cells per well as a second infection marker.”; format: functional, organism-based, Rattus norvegicus; settings: H9c2, 4 h
Leishmania donovani [5] = assay: GSK_TCAKS: pIC50 Leishmania donovani viability assay using fluorescence intensity. Assay plates (1536-well) were prepared by adding 30nL per well of compound. For single shot assay, the final compound concentration was 5uM. […] Briefly, eGFP LdBOB axenic amastigotes were harvested, fixed and counted in a CASY cell counter (Roche-Applied Science). A final concentration of 1.5 * 10^5 cells per well were prepared in amastigote media containing 500 U/mL penicillin/streptomycin (Invitrogen) and 6uL was dispensed to each experimental well using a Multidrop Combi dispenser (Thermo Scientific). 6uL of assay media was dispensed to control columns used as reference for 100% compound response. Following incubation for 72 h at 37C, 5% CO2, 2 uL of resazurin was added to each well at a final concentration of 0.5 mM in phosphate buffered saline (PBS) with IGEPAL (Sigma-Aldrich), 0.05% (v/v).; format: functional, organism-based
Leishmania donovani [6] = assay: (§2) GSK_TCAKS: pIC50 Leishmania donovani Imaging: Infected Macrophages. Assay plates (384-well) were prepared by adding 250nL of compound to each well. For single shot assay, the final compound concentration was 5 uM. […] Automated image analysis was performed with a script developed on Acapella High Content Imaging and Analysis Software (PerkinElmer). Output: Percent of infected macrophage cells were reported for each well.; format: functional, organism-based, Homo sapiens; settings: THP-1
Leishmania donovani [7] = assay: as §2, with “Amastigotes/Macrophages.” for “Infected Macrophages.”, “Average number” for “Percent”, “amastigotes per” for “infected”, “cell” for “cells”; format: functional, organism-based, Homo sapiens; settings: THP-1
Leishmania donovani [8] = assay: as §2, with “THP-1 Host” for “Infected”, “THP-1 cell count” for “Percent of infected macrophage cells”; format: functional, organism-based, Homo sapiens
[9] = test system: Trypanosoma brucei brucei; assay: GSK_TCAKS: pIC50 Trypanosoma brucei viability assay using fluorescence intensity. Assay plates (1536-well) were prepared by dispensing 25nL of compound solution per well using an Echo acoustic dispenser (Labcyte).; format: functional, organism-based; settings: Lister 427, 2 h
[10] = test system: Trypanosoma brucei brucei; assay: GSK_TCAKS: pIC50 Trypanosoma brucei viability assay using luminiscence. Assay plates (1536-well) were prepared. T. brucei cultures were harvested and counted in a CASY cell counter. A parasite suspension was prepared at a final concentration of 5 * 10^4 cells/mL in complete HMI9 medium and 6uL was dispensed to all wells containing compounds using a Multidrop Combi dispenser. 6uL of HMI9 media with 0.4% DMSO were dispensed to control columns. Plates were incubated for 24 h at 37C, 5% CO2 then tempered for 10 min at room temperature. ATP content was quantified by adding 4 uL of CellTiter-Glo Reagent (Promega) according to the manufacturer's instructions. Luminescence was measured using a ViewLux.; format: functional, organism-based; settings: Lister 427, CASY
[11] = GSK_TCAKS: pIC50 HepG2 human cell line viability assay using luminiscence. […] Seeding density was checked to ensure that new mono-layers were not more than 50% confluent at the time of harvesting. Cell suspension was added to 500 mL of the same medium at a final density of 1.2 * 10^5 cells/mL. This cell suspension was dispensed (25 uL, 3000 cells per well) into 384-well clear-bottom plates using a Multidrop Combi dispenser. Prior to addition of the cell suspension, the screening compounds (250 nL) were pre-dispensed into the plates with an Echo liquid handler. Plates were incubated for 48 h at 37C, 5% CO2. After incubation, plates equilibrated at room temperature for 30 min before proceeding to develop the luminescent signal. The signal developer, CellTiter-Glo Reagent, was allowed to equilibrate at room temperature for 30 min and added to the plates (25uL per well) using a Multidrop Combi dispenser. Plates were left for 10 min at room temperature for stabilization and then read using a ViewLux.; format: toxicity, cell-based
NIH3T3 = assay: GSK_TCAKS: pIC50 NIH 3T3 cell line viability assay using luminiscence. Tissue culture surface treated assay plates (1536-well) were used. […] The 100% cells survival control was determined exposing the host-cells to a 0.5% DMSO concentration, whereas the 100% toxicity control was achieved by seeding the cells in presence of Amphotericin B at 50uM. Plates were incubated for four days at 37C, 5% CO2. The assay readout was developed by addition of 5uL of CellTiter-Glo Reagent following the manufacturer's instructions. Luminiscence was measured using a ViewLux.; format: functional, cell-based; settings: Mus musculus, NIH3T3, 96 h
[12] = target: Sterol 14-alpha demethylase (Trypanosoma cruzi (strain CL Brener), UniProt Q7Z1V1); assay: GSK_TCAKS: pIC50 CYP51 from Trypanosoma cruzi.; format: functional
Sequence of Sterol 14-alpha demethylase (Q7Z1V1 whole entry): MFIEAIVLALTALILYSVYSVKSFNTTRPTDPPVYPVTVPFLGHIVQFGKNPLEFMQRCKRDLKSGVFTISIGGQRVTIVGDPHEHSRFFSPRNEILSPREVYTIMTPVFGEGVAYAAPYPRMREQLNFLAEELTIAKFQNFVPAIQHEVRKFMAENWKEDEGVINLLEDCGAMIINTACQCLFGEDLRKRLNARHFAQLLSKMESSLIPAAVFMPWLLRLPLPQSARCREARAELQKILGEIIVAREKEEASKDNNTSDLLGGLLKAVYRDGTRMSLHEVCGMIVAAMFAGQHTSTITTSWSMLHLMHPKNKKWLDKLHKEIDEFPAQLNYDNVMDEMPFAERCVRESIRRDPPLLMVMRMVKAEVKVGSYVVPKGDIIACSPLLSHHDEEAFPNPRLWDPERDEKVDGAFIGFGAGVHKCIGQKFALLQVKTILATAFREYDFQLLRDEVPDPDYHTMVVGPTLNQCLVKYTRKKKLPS

Structure (SMILES)	IC50 (Trypanosoma cruzi [1]) [µM]	IC50 (Trypanosoma cruzi [2]) [µM]	IC50 (Trypanosoma cruzi [3]) [µM]	IC50 (Trypanosoma cruzi [4]) [µM]	IC50 (Leishmania donovani [5]) [µM]	IC50 (Leishmania donovani [6]) [µM]	IC50 (Leishmania donovani [7]) [µM]	IC50 (Leishmania donovani [8]) [µM]	IC50 [9] [µM]	IC50 [10] [µM]	IC50 at 48 h [11] [µM]	IC50 (NIH3T3) [µM]	IC50 [12] [µM]
CN(C)Cc1ccc(-c2ccc(S(=O)(=O)NCC3CCCO3)c(F)c2)cc1 (configuration not stated)	1.26	5.01	2	> 63.1	> 63.1	> 63.1	> 63.1	> 63.1	25.1	39.8	> 126	15.8	39.8
O=c1cc(NCCCNC2CCOc3c(I)cc(Cl)cc32)[nH]c2ccccc12 (configuration not stated)	0.794	0.316	0.158	25.1	31.6	20	12.6	20	0.01	0.02	63.1	25.1	15.8
Cc1sc(C)c(C(F)(F)F)c1CNCCCNc1cc(=O)c2ccccc2[nH]1	0.794	1	0.501	> 50.1	> 50.1	50.1	25.1	31.6	0.01	0.0126	50.1	10	20
CC(C)N(C(=O)CN1C(=O)C(N)C(=O)N(c2ccccc2)c2ccccc21)c1ccccc1 (configuration not stated)	0.316	0.316	0.398	> 50.1	> 50.1	> 50.1	> 50.1	> 50.1	> 39.8	> 39.8	> 100	20	0.316
O=C1CCCCCC1(Cc1cnc[nH]1)c1ccc(Cl)cc1Cl (configuration not stated)	0.251	0.251	0.316	> 50.1	> 50.1	> 50.1	6.31	> 50.1	> 39.8	> 39.8	79.4	20	0.1
Clc1ccc(C(CC2CCCCO2)Cn2cncn2)c(Cl)c1 (configuration not stated)	0.398	1.26	1	> 50.1	25.1	> 50.1	> 50.1	> 50.1	> 39.8	> 39.8	> 100	39.8	0.251
COc1ccc(CN(C)Cc2ccncc2)cc1-c1ccc(S(=O)(=O)NC2CCC2)s1	0.501	0.631	0.501	10	39.8	> 50.1	15.8	20	> 39.8	20	> 100	25.1	0.0794
Cc1nc2[nH]c(C)c(Cc3ccc(C(C)C)cc3)c(=O)n2n1	0.501	0.794	0.251	> 50.1	1.26	31.6	15.8	> 50.1	> 39.8	> 39.8	> 100	> 50.1	> 100
CCN(C)Cc1ccc(N2CCC(NS(=O)(=O)c3ccc4c(c3)CCO4)CC2)nc1	0.631	1.26	1	> 50.1	> 50.1	> 50.1		> 50.1	> 39.8	39.8	> 100	12.6	> 100
Cn1c(CN2CCN(c3ncc(C(F)(F)F)cc3Cl)CC2)nc2ccncc21	0.794	1	1	> 50.1	5.01	> 50.1		6.31	6.31	> 39.8	> 100	10	0.0794
FC(F)(F)c1cc(C2CCCN(Cc3c[nH]c4ccccc34)C2)nc2ncnn12 (configuration not stated)	1.58	10	6.31	> 50.1	> 50.1	> 50.1	> 50.1	15.8	> 39.8	> 39.8	> 100	20	
Fc1ccccc1N1C[C@H]2CCN(c3cccnc3)C[C@H]2C1	0.2	0.2	0.2	> 50.1	12.6	> 50.1		> 50.1	31.6	> 39.8	> 100	12.6	0.0631
Cn1cncc1CN1CCC2(CC1)COC(Cc1ccccc1)C2 (configuration not stated)	0.316	0.501	0.316	> 50.1	12.6	> 50.1		> 50.1	> 39.8	> 39.8	> 100	25.1	1
CN(C)CCOc1ccc(N2CCN(S(=O)(=O)c3ccc(Cl)cc3)CC2)cc1	0.631	0.631	0.501	> 50.1	39.8	31.6	31.6	> 50.1	20	25.1	50.1	15.8	
CC1(C)CCC(=Cc2ccc(Cl)cc2)CC1(O)Cn1ccnc1 (configuration not stated)	0.00631	0.00794	0.00501	31.6	2.51	7.94	2	12.6	10	25.1	50.1	15.8	0.0501
O=C(NCC1CCCCC1)c1cc(=O)c2ccccc2o1	0.447	0.631	0.501	31.6	5.01	15.8	6.31	> 50.1	1	1.26	25.1	31.6	> 100
